From patent US8354414B2, “Substituted bicyclic pyrimidines” (Cephalon, Inc, priority 2006, dated 2013) come the findings set out here.

The target of one test is T1, CDK5/GST-p25 (Homo sapiens, UniProt Q00535).
T1 construct: The final construct, encoding for full-length human CDK5; made in house; host or cells: Sf21 insect cells (baculovirus co-infection)
The test is described as follows: Inhibition of CDK5/GST-p25 kinase activity (ELISA with time-resolved fluorescence readout). The class given is biochemical. The method in brief:
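Sf21-coexpressed full-length human CDK5 with GST-p25 (p35 aa 108-307), glutathione-purified, at 2 ng/ml was reacted for 20 min at 37 °C on plate-coated GST-Rb(773-928). Buffer was 20 mM HEPES pH 7.2, 10 µM ATP, 10 mM MgCl2 and 2.5% DMSO. Phospho-Rb Ser-780 was detected by Eu-labelled antibody TRF, and IC50 curves were fitted.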
(An ELISA detects its analyte on a solid surface through an enzyme-linked reagent.)

A further test concerns the target T2, His6-GSK-3β (Homo sapiens, UniProt P49841).
T2 construct: made in house; host or cells: Sf21 insect cells (baculovirus)
Put plainly: Inhibition of His6-GSK-3β kinase activity (ELISA-based format, time-resolved fluorescence readout). The test is classed as biochemical. The note with it: class symbols; read-out: GSK3β IC50. The method in brief:
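N-terminal His6-tagged full-length human GSK-3β (aa 2-419) expressed in Sf21 cells, 200 ng/ml, phosphorylating plate-coated GST-Rb with 20 μM ATP in pH 7.2 HEPES buffer, 30 min at 37° C. Phospho-Rb (Ser-780) detected by antibody plus Eu-labelled secondary, time-resolved fluorescence; IC50 from curves.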

A word on the IC50: it is the concentration that inhibits the measured activity by half.

Where a name gives a salt, the structure may show the parent alone.

T2 sequence (P49841 2-419): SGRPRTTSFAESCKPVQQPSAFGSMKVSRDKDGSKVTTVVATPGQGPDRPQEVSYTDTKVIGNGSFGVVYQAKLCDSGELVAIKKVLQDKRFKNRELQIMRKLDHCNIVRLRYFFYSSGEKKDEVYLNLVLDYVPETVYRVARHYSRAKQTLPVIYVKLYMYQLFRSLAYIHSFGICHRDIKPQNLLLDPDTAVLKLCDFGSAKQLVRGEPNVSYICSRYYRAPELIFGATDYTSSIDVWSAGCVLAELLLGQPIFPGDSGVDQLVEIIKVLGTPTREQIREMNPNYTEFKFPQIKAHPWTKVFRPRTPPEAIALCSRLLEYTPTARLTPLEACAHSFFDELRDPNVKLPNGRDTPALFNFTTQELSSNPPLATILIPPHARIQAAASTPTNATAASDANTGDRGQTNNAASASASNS
T1 sequence (Q00535 whole entry): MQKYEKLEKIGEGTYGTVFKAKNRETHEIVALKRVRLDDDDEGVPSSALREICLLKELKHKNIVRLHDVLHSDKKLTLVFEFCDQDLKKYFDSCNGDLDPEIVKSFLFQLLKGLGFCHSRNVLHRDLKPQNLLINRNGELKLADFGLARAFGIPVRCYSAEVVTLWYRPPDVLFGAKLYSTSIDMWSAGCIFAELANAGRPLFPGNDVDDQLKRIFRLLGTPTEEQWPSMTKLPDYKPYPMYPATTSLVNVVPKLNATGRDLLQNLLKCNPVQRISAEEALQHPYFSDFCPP
T1 sequence (Q15078 108-307 partner limits assumed): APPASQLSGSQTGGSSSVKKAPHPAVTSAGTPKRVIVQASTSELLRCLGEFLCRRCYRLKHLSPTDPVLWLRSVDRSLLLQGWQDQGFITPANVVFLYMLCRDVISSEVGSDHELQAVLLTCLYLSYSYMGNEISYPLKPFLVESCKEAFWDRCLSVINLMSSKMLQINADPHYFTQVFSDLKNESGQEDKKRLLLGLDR

Regarding `N#Cc1ccc2c(c1)C(c1nc(NCCc3cccnc3)nc3nn(C4CCCC4)cc13)C(=O)N2` (stereo not drawn) [Example 114, 3-(2-cyclopentyl-6-(2-pyridin-3-yl-ethylamino)-2H-pyrazolo[3,4-d]pyrimidin-4-yl)-2-oxo-2,3-dihydro-1H-indole-5-carbonitrile], the 50% inhibitory concentration (IC50) on CDK5/GST-p25 (class symbols) and at His6-GSK-3β was less than 300 nM in each case.
For `Cn1cc2c(C3C(=O)Nc4ccc(Br)cc43)nc(NCc3ccncc3)nc2n1` (stereo not drawn) [Example 302, 5-Bromo-3-{2-methyl-6-[(pyridin-4-ylmethyl)-amino]-2H-pyrazolo[3,4-d]pyrimidin-4-yl}-1,3-dihydro-indol-2-one], the half-inhibitory concentration (IC50) at CDK5/GST-p25 (class symbols) and at His6-GSK-3β was less than 300 nM each time.
As to `CNCCCNc1nc(C2C(=O)Nc3ccc(C(F)(F)F)cc32)c2cn(C3CCCC3)nc2n1` (stereo not drawn) [Example 253, 3-[2-Cyclopentyl-6-(3-methylamino-propylamino)-2H-pyrazolo [3,4-d]pyrimidin-4-yl]-5-trifluoromethyl-1,3-dihydro-indol-2-one hydrochloride salt], the IC50 is 300 to 3000 nM against CDK5/GST-p25 (class symbols) and less than 300 nM at His6-GSK-3β.
For the compound `N#Cc1ccc2c(c1)C(c1nc(NCCc3ccncc3)nc3nn(C4CCCC4)cc13)C(=O)N2` (stereo not drawn) [Example 126, 3-(2-cyclopentyl-6-(2-pyridin-4-yl-ethylamino)-2H-pyrazolo [3,4-d]pyrimidin-4-yl)-2-oxo-2,3-dihydro-1H-indole-5-carbonitrile], the IC50 against CDK5/GST-p25 (class symbols) and at His6-GSK-3β was less than 300 nM throughout.
For `N#Cc1ccc2c(c1)C(c1nc(N3CCN(CCN4CCCC4)CC3)nc3nn(C4CCCC4)cc13)C(=O)N2` (stereo not drawn) [Example 127, 3-{2-cyclopentyl-6-[4-(2-pyrrolidin-1-yl-ethyl)-piperazin-1-yl]-2H-pyrazolo[3,4-d]pyrimidin-4-yl}-2-oxo-2,3-dihydro-1H-indole-5-carbonitrile], the half-maximal inhibitory concentration (IC50) against CDK5/GST-p25 (class symbols) is more than 10000 nM; on His6-GSK-3β, less than 300 nM.
Take `CCOCCn1cc2c(C3C(=O)Nc4ccc(Cl)cc43)nc(NCc3cccnc3)nc2n1` (stereo not drawn) [Example 213, 5-Chloro-3-{2-(2-ethoxy-ethyl)-6[(pyridin-3-ylmethyl)-amino]-2H-pyrazolo[3,4-d]pyrimidin-4-yl}-1,3-dihydro-indol-2-one]: the IC50 on CDK5/GST-p25 (class symbols) and on His6-GSK-3β was less than 300 nM each time.
Take `N#Cc1ccc2c(c1)C(c1nc(N3CCOCC3)nc3nn(C4CCCC4)cc13)C(=O)N2` (stereo not drawn) [Example 118, 3-(2-cyclopentyl-6-morpholin-4-yl-2H-pyrazolo[3,4-d]pyrimidin-4-yl)-2-oxo-2,3-dihydro-1H-indole-5-carbonitrile]: the IC50 against CDK5/GST-p25 (class symbols) is 300 to 3000 nM; on His6-GSK-3β, less than 300 nM.
On to `O=C1Nc2ccc(Cl)cc2C1c1nc(NCc2ccncc2)nc2c1CCC2` (stereo not drawn) [Example 326, 5-Chloro-3-{2-[(pyridin-4-ylmethyl)-amino]-6,7-dihydro-5H-cyclopentapyrimidin-4-yl}-1,3-dihydro-indol-2-one], for which the IC50 against CDK5/GST-p25 (class symbols) is more than 10000 nM; on His6-GSK-3β it was 300 to 3000 nM.
Taken in the same sequence, the figures for `CCN(CC)CCN(C)c1nc(C2C(=O)Nc3ccc(C#N)cc32)c2cn(C3CCCC3)nc2n1` (stereo not drawn) [Example 121, 3-{2-cyclopentyl-6-[(2-diethylamino-ethyl)-methyl-amino]-2H-pyrazolo [3,4-d]pyrimidin-4-yl}-2-oxo-2,3-dihydro-1H-indole-5-carbonitrile] were more than 10000 nM and less than 300 nM.
Taken in the same sequence, the figures for `O=C1Nc2ccc(F)cc2C1c1nc(NCCN2CCOCC2)nc2c1CCC2` (stereo not drawn) [Example 318, 5-Fluoro-3-[2-(2-morpholin-4-ylethylamino)-6,7-dihydro-5H-cyclopentapyrimidin-4-yl]-1,3-dihydro-indol-2-one] were more than 10000 nM and more than 10000 nM.
As to `N#Cc1ccc2c(c1)C(c1nc(Cl)nc3c1CCC3)C(=O)N2` (stereo not drawn) [Example 317, 3-(2-Chloro-6,7-dihydro-5H-cyclopentapyrimidin-4-yl)-2-oxo-2,3-dihydro-1H-indole-5-carbonitrile], the IC50 on CDK5/GST-p25 (class symbols) and at His6-GSK-3β was more than 10000 nM in each case.
In the case of `C[C@@H](O)CNc1nc(C2C(=O)Nc3ccc(Br)cc32)c2cn(C)nc2n1` (stereo partly drawn) [Example 358, 5-Bromo-3-[6-(2-(R)-hydroxy-propylamino)-2-methyl-2H-pyrazolo [3,4-d]pyrimidin-4-yl]-1,3-dihydroindol-2-one], the IC50 against CDK5/GST-p25 (class symbols) and at His6-GSK-3β was less than 300 nM in each case.
Turning to `CCCn1cc2c(C3C(=O)Nc4ccc(Br)cc43)nc(NCCNC)nc2n1` (stereo not drawn) [Example 365, 5-Bromo-3-[6-(2-methylamino-ethylamino)-2-propyl-2H-pyrazolo [3,4-d]pyrimidin-4-yl]-1,3-dihydro-indol-2-one hydrochloride salt], the values for the IC50 against CDK5/GST-p25 (class symbols) and on His6-GSK-3β were 300 to 3000 nM and less than 300 nM, respectively.
On the same counts, the results for `CCCCN1CCC(CNc2nc(C3C(=O)Nc4ccc(Cl)cc43)c3cn(C4CCCC4)nc3n2)CC1` (stereo not drawn) [Example 275, 3-{6-[(1-Butyl-piperidin-4-ylmethyl)-amino]-2-cyclopentyl-2H-pyrazolo[3,4-d]pyrimidin-4-yl}-5-chloro-1,3-dihydro-indol-2-one] are more than 10000 nM and less than 300 nM.
Taken in the same sequence, the figures for `CN(C)CCOc1nc(C2C(=O)Nc3ccc(C#N)cc32)c2cn(C3CCCC3)nc2n1` (stereo not drawn) [Example 122, 3-[2-cyclopentyl-6-(2-dimethylamino-ethoxy)-2H-pyrazolo[3,4-d]pyrimidin-4-yl]-2-oxo-2,3-dihydro-1H-indole-5-carbonitrile] were more than 10000 nM and less than 300 nM.
As to `CN1CCN(c2nc(C3C(=O)Nc4ccc(C#N)cc43)c3cn(C4CCCC4)nc3n2)CC1` (stereo not drawn) [Example 117, 3-(2-cyclopentyl-6-(4-methyl-piperazin-1-yl)-2H-pyrazolo[3,4-d]pyrimidin-4-yl)-2-oxo-2,3-dihydro-1H-indole-5-carbonitrile], the IC50 on CDK5/GST-p25 (class symbols) was 3000 to 10000 nM; at His6-GSK-3β, less than 300 nM.
As for `O=C1Nc2ccc(F)cc2C1c1nc(NCc2ccccn2)nc2c1CCC2` (stereo not drawn) [Example 322, 5-Fluoro-3-{2-[(pyridin-2-ylmethyl)-amino]-6,7-dihydro-5H-cyclopentapyrimidin-4-yl}-1,3-dihydro-indol-2-one], the IC50 is more than 3000 nM against CDK5/GST-p25 (numeric bounds) and more than 10000 nM at His6-GSK-3β.
On to `CCOCCNc1nc2c(c(C3C(=O)Nc4ccc(Cl)cc43)n1)CCC2` (stereo not drawn) [Example 325, 5-Chloro-3-[2-(2-ethoxy-ethylamino)-6,7-dihydro-5H-cyclopentapyrimidin-4-yl]-1,3-dihydro-indol-2-one], for which the concentration for half-maximal inhibition (IC50) at CDK5/GST-p25 (class symbols) and on His6-GSK-3β was more than 10000 nM throughout.
As to `CCCn1cc2c(C3C(=O)Nc4ccc(C)cc43)nc(NCCN(C)C)nc2n1` (stereo not drawn) [Example 309, 3-[6-(2-Dimethylamino-ethylamino)-2-propyl-2H-pyrazolo[3,4-d]pyrimidin-4-yl]-5-methyl-1,3-dihydro-indol-2-one], the IC50 on CDK5/GST-p25 (class symbols) and on His6-GSK-3β was 300 to 3000 nM each time.
For the compound `O=C1Nc2ccc(Cl)cc2C1c1nc(NCc2ccccn2)nc2c1CCC2` (stereo not drawn) [Example 330, 5-Chloro-3-{2-[(pyridin-2-ylmethyl)-amino]-6,7-dihydro-5H-cyclopentapyrimidin-4-yl}-1,3-dihydro-indol-2-one], the IC50 at CDK5/GST-p25 (class symbols) and at His6-GSK-3β was more than 10000 nM each time.
Take `CCCn1cc2c(C3C(=O)Nc4ccc(Br)cc43)nc(N[C@@H]3CCNC3)nc2n1` (stereo partly drawn) [Example 363]: the IC50 against CDK5/GST-p25 (class symbols) and on His6-GSK-3β was 300 to 3000 nM throughout.
In the case of `N#Cc1ccc2c(c1)C(c1nc(Cl)nc3nn(C4CCCC4)cc13)C(=O)N2` (stereo not drawn) [Example 113, 3-(6-Chloro-2-cyclopentyl-2H-pyrazolo[3,4-d]pyrimidin-4-yl)-2-oxo-2,3-dihydro-1H-indole-5-carbonitrile], the concentration for half-maximal inhibition (IC50) is more than 10000 nM on CDK5/GST-p25 (class symbols) and less than 300 nM at His6-GSK-3β.
On the same counts, the results for `CN(C)CCNc1nc(C2C(=O)Nc3ccc(Br)cc32)c2cn(C)nc2n1` (stereo not drawn) [Example 359, 5-Bromo-3-[6-(2-dimethylamino-ethylamino)-2-methyl-2H-pyrazolo[3,4-d]pyrimidin-4-yl]-1,3-dihydro-indol-2-one] are 300 to 3000 nM and 300 to 3000 nM.
As to `N#Cc1ccc2c(c1)C(c1nc(N3CCN(CCCc4ccccc4)CC3)nc3nn(C4CCCC4)cc13)C(=O)N2` (stereo not drawn) [Example 128, 3-{2-cyclopentyl-6-[4-(3-phenyl-propyl)-piperazin-1-yl]-2H-pyrazolo[3,4-d]pyrimidin-4-yl}-2-oxo-2,3-dihydro-1H-indole-5-carbonitrile], the IC50 at CDK5/GST-p25 (class symbols) is more than 10000 nM; at His6-GSK-3β, less than 300 nM.
Taken in the same sequence, the figures for `O=C1Nc2ccc(Br)cc2C1c1nc(NCCCN2CCOCC2)nc2c1CCC2` (stereo not drawn) [Example 331, 5-Bromo-3-[2-(3-morpholin-4-yl-propylamino)-6,7-dihydro-5H-cyclopentapyrimidin-4-yl]-1,3-dihydro-indol-2-one] were more than 10000 nM and 300 to 3000 nM.
On the same counts, the results for `CCCn1cc2c(C3C(=O)Nc4ccc(C)cc43)nc(NCCCOC)nc2n1` (stereo not drawn) [Example 310, 3-[6-(3-Methoxy-propylamino)-2-propyl-2H-pyrazolo[3,4-d]pryrimidin-4-yl]-5-methyl-1,3-dihydro-indol-2-one] are 300 to 3000 nM and 300 to 3000 nM.
On the same counts, the results for `CCOCCn1cc2c(C3C(=O)Nc4ccc(Cl)cc43)nc(NCCCNC)nc2n1` (stereo not drawn) [Example 215, 5-Chloro-3-[2-(2-ethoxy-ethyl)-6-(3-methylamino-propylamino)-2H-pyrazolo [3,4-d]pyrimidin-4-yl]-1,3-dihydro-indol-2-one] are 300 to 3000 nM and 300 to 3000 nM.
